target: GCN2 (Homo sapiens, UniProt Q9P2K8); assay: TR-FRET biochemical assay for inhibition of GCN2 (Example 106, for Example 1-4BB); conditions: Table 8
Sequence (Q9P2K8 whole entry): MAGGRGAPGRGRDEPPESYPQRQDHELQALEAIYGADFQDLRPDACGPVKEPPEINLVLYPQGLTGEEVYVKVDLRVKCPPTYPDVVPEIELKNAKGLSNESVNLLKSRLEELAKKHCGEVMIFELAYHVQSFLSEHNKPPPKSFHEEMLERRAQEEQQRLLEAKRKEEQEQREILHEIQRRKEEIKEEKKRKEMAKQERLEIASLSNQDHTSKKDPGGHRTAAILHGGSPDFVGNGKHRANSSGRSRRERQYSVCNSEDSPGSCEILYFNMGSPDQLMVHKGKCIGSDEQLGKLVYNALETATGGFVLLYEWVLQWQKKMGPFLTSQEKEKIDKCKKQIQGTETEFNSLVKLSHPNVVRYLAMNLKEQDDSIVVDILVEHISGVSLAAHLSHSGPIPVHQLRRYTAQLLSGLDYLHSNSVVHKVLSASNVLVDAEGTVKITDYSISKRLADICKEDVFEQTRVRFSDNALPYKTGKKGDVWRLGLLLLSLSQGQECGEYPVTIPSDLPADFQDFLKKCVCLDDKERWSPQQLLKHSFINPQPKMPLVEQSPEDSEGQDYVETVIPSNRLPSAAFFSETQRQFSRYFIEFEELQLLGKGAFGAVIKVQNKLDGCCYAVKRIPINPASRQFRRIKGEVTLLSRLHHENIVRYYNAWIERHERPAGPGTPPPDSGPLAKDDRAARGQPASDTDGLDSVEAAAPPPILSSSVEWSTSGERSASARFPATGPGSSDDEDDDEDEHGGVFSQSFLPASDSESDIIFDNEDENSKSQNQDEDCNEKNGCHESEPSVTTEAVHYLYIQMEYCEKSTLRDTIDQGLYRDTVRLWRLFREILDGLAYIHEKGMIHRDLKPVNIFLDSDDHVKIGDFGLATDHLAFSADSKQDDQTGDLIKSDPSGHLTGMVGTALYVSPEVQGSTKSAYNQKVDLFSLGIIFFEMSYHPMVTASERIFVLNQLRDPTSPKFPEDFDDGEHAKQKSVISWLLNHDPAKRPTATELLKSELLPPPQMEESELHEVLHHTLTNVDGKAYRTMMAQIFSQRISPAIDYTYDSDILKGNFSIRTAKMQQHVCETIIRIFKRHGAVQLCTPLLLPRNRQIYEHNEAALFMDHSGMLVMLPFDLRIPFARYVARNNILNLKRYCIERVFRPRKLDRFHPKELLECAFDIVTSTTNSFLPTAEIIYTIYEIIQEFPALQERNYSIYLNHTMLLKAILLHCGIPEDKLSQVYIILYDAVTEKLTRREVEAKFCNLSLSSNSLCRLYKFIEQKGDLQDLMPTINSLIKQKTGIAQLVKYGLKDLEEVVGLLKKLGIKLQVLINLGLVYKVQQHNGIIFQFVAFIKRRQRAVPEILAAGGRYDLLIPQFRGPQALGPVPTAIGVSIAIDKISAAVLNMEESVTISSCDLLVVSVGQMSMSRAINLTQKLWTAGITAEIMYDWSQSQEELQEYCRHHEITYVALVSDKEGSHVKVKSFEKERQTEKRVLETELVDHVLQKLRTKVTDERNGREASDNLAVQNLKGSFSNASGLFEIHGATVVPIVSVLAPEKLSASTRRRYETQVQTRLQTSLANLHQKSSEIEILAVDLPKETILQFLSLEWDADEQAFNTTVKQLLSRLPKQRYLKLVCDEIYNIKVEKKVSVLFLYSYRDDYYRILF

How did the IC50 turn out when Cn1ncc(S(=O)(=O)Nc2ccc(F)c(-c3ccc4c(-c5ncc[nH]5)n[nH]c4c3F)c2F)n1 [Example 2Y, N-(2,4-difluoro-3-(7-fluoro-3-(1H-imidazol-2-yl)-1H-indazol-6-yl)phenyl)-2-methyl-2H-l,2,3-triazole-4-sulfonamide] was run?
Its IC50 is 2500 to 10000 nM.

Cc1ncccc1S(=O)(=O)Nc1ccc(F)c(-c2ccc3c(-c4ncc[nH]4)n[nH]c3c2F)c1F [Example 2, N-(2,4-difluoro-3-(7-fluoro-3-(1H-imidazol-2-yl)-1H-indazol-6-yl)phenyl)-2-methylpyridine-3-sulfonamide] was tested. Which IC50 did it give?
Its IC50 is < 500 nM.

With COc1ccc(S(=O)(=O)Nc2ccc(F)c(-c3ccc4c(-c5ncc[nH]5)n[nH]c4c3F)c2F)cc1 [Example 2B, N-(2,4-difluoro-3-(7-fluoro-3-(1H-imidazol-2-yl)-1H-indazol-6-yl)phenyl)-4-methoxybenzene-sulfonamide] as the molecule, how does the IC50 read?
The IC50 was 500 to 2500 nM.

Which IC50 does the source give for O=S(=O)(Nc1ccc(F)c(-c2ccc3c(-c4ncc[nH]4)n[nH]c3c2)c1F)c1cc(Cl)ccc1Cl [Example 2AV, N-(3-(3-(1H-imidazol-2-yl)-1H-indazol-6-yl)-2,4-difluorophenyl)-2,5-dichlorobenzenesulfonamide] here?
The IC50 was < 500 nM.

For Cc1ccccc1S(=O)(=O)Nc1ccc(F)c(-c2ccc3c(-c4ncc[nH]4)n[nH]c3c2F)c1F [Example 2BR, N-(2,4-difluoro-3-(7-fluoro-3-(1H-imidazol-2-yl)-1H-indazol-6-yl)phenyl)-2-methylbenzenesulfonamide], which IC50 is on record?
Its IC50 is < 500 nM.

Cc1ncc(F)cc1S(=O)(=O)Nc1ccc(F)c(-c2ccc3c(-c4ncc[nH]4)n[nH]c3c2F)c1F [Example 2AB, N-(2,4-difluoro-3-(7-fluoro-3-(1H-imidazol-2-yl)-1H-indazol-6-yl)phenyl)-5-fluoro-2-methylpyridine-3-sulfonamide] was tested. Which IC50 did it give?
The IC50 was < 500 nM.

Which IC50 does the source give for N#Cc1ccccc1S(=O)(=O)Nc1ccc(F)c(-c2ccc3c(-c4ncc[nH]4)n[nH]c3c2F)c1F [Example 2BK, 2-cyano-N-(2,4-difluoro-3-(7-fluoro-3-(1H-imidazol-2-yl)-1H-indazol-6-yl)phenyl)-benzenesulfonamide] here?
The IC50 was < 500 nM.

O=c1cccc(S(=O)(=O)Nc2ccc(F)c(-c3ccc4c(-c5ncc[nH]5)n[nH]c4c3F)c2F)[nH]1 [Example 2AL, N-(2,4-difluoro-3-(7-fluoro-3-(1H-imidazol-2-yl)-1H-indazol-6-yl)phenyl)-6-oxo-1,6-dihydropyridine-2-sulfonamide] was tested. Which IC50 did it give?
Its IC50 is 2500 to 10000 nM.

O=S(=O)(Nc1ccc(F)c(-c2ccc3c(-c4ncc[nH]4)n[nH]c3c2F)c1F)c1cc(Cl)cc(CO)c1Cl [Example 2AF, 2,5-dichloro-N-(2,4-difluoro-3-(7-fluoro-3-(1H-imidazol-2-yl)-1H-indazol-6-yl)-phenyl)-3-(hydroxyl-methyl)benzenesulfonamide] was tested. Which IC50 did it give?
The IC50 was < 500 nM.

Cc1ccc(Cl)cc1S(=O)(=O)Nc1ccc(F)c(-c2ccc3c(-c4ncc[nH]4)n[nH]c3c2)c1F [Example 2AW, N-(3-(3-(1H-imidazol-2-yl)-1H-indazol-6-yl)-2,4-difluorophenyl)-5-chloro-2-methylbenzenesulfonamide] was tested. Which IC50 did it give?
The IC50 was < 500 nM.

COc1ncc(Cl)cc1S(=O)(=O)Nc1ccc(F)c(-c2ccc3c(C(N)=O)n[nH]c3c2F)c1F [Example 2Z, 6-(3-((5-chloro-2-methoxy-pyridine)-3-sulfonamido)-2,6-difluorophenyl)-7-fluoro-1H-indazole-3-carboxamide] was tested. Which IC50 did it give?
The IC50 was < 500 nM.

For O=S(=O)(Nc1ccc(F)c(-c2ccc3c(-c4ncc[nH]4)n[nH]c3c2F)c1F)c1cc(F)ccc1F [Example 2BH, N-(2,4-difluoro-3-(7-fluoro-3-(1H-imidazol-2-yl)-1H-indazol-6-yl)phenyl)-2,5-difluorobenzenesulfonamide], which IC50 is on record?
Its IC50 is < 500 nM.

O=S(=O)(Nc1ccc(F)c(-c2ccc3c(-c4ncc[nH]4)n[nH]c3c2F)c1F)c1cc(Cl)ccc1Cl [Example 2AX, 2,5-dichloro-N-(2,4-difluoro-3-(7-fluoro-3-(1H-imidazol-2-yl)-1H-indazol-6-yl)phenyl)-benzenesulfonamide] was tested. Which IC50 did it give?
Its IC50 is < 500 nM.

Which IC50 does the source give for COc1ccccc1S(=O)(=O)Nc1ccc(F)c(-c2ccc3c(-c4ncc[nH]4)n[nH]c3c2F)c1F [Example 2BF, N-(2,4-difluoro-3-(7-fIuoro-3-(1H-imidazol-2-yl)-1H-indazol-6-yl)phenyl)-2-methoxybenzenesulfonamide] here?
The IC50 was 500 to 2500 nM.

same assay, conditions: Table 9

Cc1ncc(F)cc1S(=O)(=O)Nc1ccc(F)c(-c2ccc3c(C(=O)NCCCO)n[nH]c3c2F)c1F [Example 3AZ, 6-(2,6-difluoro-3-((5-fluoro-2-methylpyridine)-3-sulfonamido)phenyl)-7-fluoro-N-(3-hydroxypropyl)-1H-indazole-3-carboxamide] was tested. Which IC50 did it give?
The IC50 was < 500 nM.

COc1ncc(F)cc1S(=O)(=O)Nc1ccc(F)c(-c2ccc3c(-c4nc(C#N)c[nH]4)n[nH]c3c2F)c1F [Example 19, N-(3-(3-(4-Cyano-1H-imidazol-2-yl)-7-fluoro-1H-indazol-6-yl)-2,4-difluorophenyl)-5-fluoro-2-methoxypyridine-3-sulfonamide] was tested. Which IC50 did it give?
The IC50 was < 500 nM.

Which IC50 does the source give for COc1ncc(C#N)cc1S(=O)(=O)Nc1ccc(F)c(-c2ccc3c(C(N)=O)n[nH]c3c2F)c1F [Example 3CY, 6-(3-((5-cyano-2-methoxy-pyridine)-3-sulfonamido)-2,6-difluorophenyl)-7-fluoro-1H-indazole-3-carboxamide] here?
The IC50 was 500 to 2500 nM.

For COc1ncc(F)cc1S(=O)(=O)Nc1ccc(F)c(-c2ccc3c(C(N)=O)n[nH]c3c2F)c1F [Example 3T, 6-(2,6-difluoro-3-((5-fluoro-2-methoxypyridine)-3-sulfonamido)phenyl)-7-fluoro-1H-indazole-3-carboxamide], which IC50 is on record?
Its IC50 is < 500 nM.

For COc1ncc(F)cc1S(=O)(=O)Nc1cccc(-c2ccc3c(C(=O)NCC[C@@H](O)CO)n[nH]c3c2F)c1F [Example 3BH, 6-(2-fluoro-3-((5-fluoro-2-methoxypyridine)-3-sulfonamido)phenyl)-N-((R)-3,4-dihydroxybutyl)-7-fluoro-1H-indazole-3-carboxamide], which IC50 is on record?
The IC50 was 500 to 2500 nM.

How did the IC50 turn out when CNC(=O)c1n[nH]c2c(F)c(-c3c(F)cnc(NS(=O)(=O)c4cc(F)cnc4C)c3F)ccc12 [Example 24, 6-(3,5-Difluoro-2-((5-fluoro-2-methylpyridine)-3-sulfonamido)pyridin-4-yl)-7-fluoro-N-methyl-1H-indazole-3-carboxamide] was run?
Its IC50 is > 10000 nM.

Which IC50 does the source give for Cc1ncc(F)cc1S(=O)(=O)Nc1cccc(-c2ccc3c(-c4ncc[nH]4)n[nH]c3c2Cl)c1F [Example 3N, N-(3-(7-chloro-3-(1H-imidazol-2-yl)-1H-indazol-6-yl)-2-fluorophenyl)-5-fluoro-2-methylpyridine-3-sulfonamide] here?
The IC50 was 500 to 2500 nM.

Which IC50 does the source give for COc1ncc(F)cc1S(=O)(=O)Nc1cc(F)cc(-c2ccc3c(-c4ncc[nH]4)n[nH]c3c2F)c1F [Example 3AS, N-(2,5-difluoro-3-(7-fluoro-3-(1H-imidazol-2-yl)-1H-indazol-6-yl)phenyl)-5-fluoro-2-methoxypyridine-3-sulfonamide] here?
The IC50 was < 500 nM.

Which IC50 does the source give for COc1ncc(C#N)cc1S(=O)(=O)Nc1ccc(F)c(-c2ccc3c(C(N)=O)n[nH]c3c2F)c1F [Example 4D] here?
The IC50 was < 500 nM.

For Cc1ccc(S(=O)(=O)Nc2ccc(F)c(-c3ccc4c(C(N)=O)n[nH]c4c3F)c2F)c(C)n1 [Example 3DL, 6-(3-((2,6-dimethylpyridine)-3-sulfonamido)-2,6-difluoro-phenyl)-7-fluoro-1H-indazole-3-carboxamide], which IC50 is on record?
Its IC50 is 500 to 2500 nM.

With COc1ncc(CO)cc1S(=O)(=O)Nc1ccc(F)c(-c2ccc3c(C(=O)NCCCN(C)C)n[nH]c3c2F)c1F [Example 3DB, 6-(2,6-difluoro-3-((5-(hydroxymethyl)-2-meth-oxypyridine)-3-sulfonamido)-phenyl)-N-(3-(dimethyl-amino)propyl)-7-fluoro-1H-indazole-3-carboxamide] as the molecule, how does the IC50 read?
Its IC50 is > 10000 nM.

For COc1ncc(C#N)cc1S(=O)(=O)Nc1ccc(F)c(-c2ccc3c(C(=O)NCCCO)n[nH]c3c2F)c1F [Example 4C], which IC50 is on record?
The IC50 was 500 to 2500 nM.

With O=S(=O)(Nc1ncc(F)c(-c2ccc3c(-c4ncc[nH]4)n[nH]c3c2F)c1F)c1cc(F)ccc1F [Example 3H, N-(3,5-difIuoro-4-(7-fluoro-3-(1H-imidazol-2-yl)-1H-indazol-6-yl)pyridin-2-yl)-2,5-difluorobenzene-sulfonamide] as the molecule, how does the IC50 read?
Its IC50 is < 500 nM.

COc1ncc(F)cc1S(=O)(=O)Nc1ncc(F)c(-c2ccc3c(-c4nc(CO)c[nH]4)n[nH]c3c2F)c1F [Example 3K, N-(3,5-difluoro-4-(7-fluoro-3-(4-(hydroxymethyl)-1H-imidazol-2-yl)-1H-indazol-6-yl)pyridin-2-yl)-5-fluoro-2-methoxypyridine-3-sulfonamide] was tested. Which IC50 did it give?
The IC50 was < 500 nM.

With COc1ncc(Cl)cc1S(=O)(=O)Nc1ccc(F)c(-c2ccc3c(-c4cnn[nH]4)n[nH]c3c2F)c1F [Example 4AN] as the molecule, how does the IC50 read?
The IC50 was < 500 nM.

COc1ncc(F)cc1S(=O)(=O)Nc1ccc(F)c(-c2ccc3c(-c4nnc(C)[nH]4)n[nH]c3c2F)c1F [Example 3CK, N-(2,4-difluoro-3-(7-fluoro-3-(5-methyl-4H-1,2,4-triazol-3-yl)-1H-indazol-6-yl)phenyl)-5-fluoro-2-methoxypyridine-3-sulfonamide] was tested. Which IC50 did it give?
Its IC50 is < 500 nM.

With COc1ncc(Cl)cc1S(=O)(=O)Nc1cc(F)cc(-c2ncc3c(-c4ncc[nH]4)n[nH]c3c2F)c1F [Example 36, 5-chloro-N-[2,5-difluoro-3-[7-fluoro-3-(1H-imidazol-2-yl)-1H-pyrazolo[4,3-c]pyridin-6-yl]phenyl]-2-methoxy-pyridine-3-sulfonamide] as the molecule, how does the IC50 read?
The IC50 was < 500 nM.

How did the IC50 turn out when O=S(=O)(Nc1ccc(F)c(-c2ccc3c(-c4ncc[nH]4)n[nH]c3c2F)c1F)c1cccn2ccnc12 [Example 3O, N-(2,4-difIuoro-3-(7-fluoro-3-(1H-imidazol-2-yl)-1H-indazol-6-yl)phenyl)-imidazo[1,2-a]pyridine-8-sulfonamide] was run?
Its IC50 is < 500 nM.

For COc1ncc(F)cc1S(=O)(=O)Nc1ccc(F)c(-c2ccc3c(-c4nc(C(O)CO)c[nH]4)n[nH]c3c2F)c1F (stereo not drawn) [Example 21, N-(3-(3-(4-(1,2-Dihydroxyethyl)-1H-imidazol-2-yl)-7-fluoro-1H-indazol-6-yl)-2,4-difluorophenyl)-5-fluoro-2-methoxypyridine-3-sulfonamide], which IC50 is on record?
The IC50 was < 500 nM.

From patent US20220388964A1 (HiberCell, Inc., priority 2019, published 2022)
